Assays:
[1] = molecular target: T1, Indoleamine 2,3-dioxygenase 2 (Homo sapiens) (UniProt Q6ZQW0); experiment: Inhibition of human IDO2 at 10 uM using L-tryptophan as substrate incubated for 30 min assessed as reduction in conversion of N-formyl kynurenine to kynurenine relative to control
T1 sequence (whole entry): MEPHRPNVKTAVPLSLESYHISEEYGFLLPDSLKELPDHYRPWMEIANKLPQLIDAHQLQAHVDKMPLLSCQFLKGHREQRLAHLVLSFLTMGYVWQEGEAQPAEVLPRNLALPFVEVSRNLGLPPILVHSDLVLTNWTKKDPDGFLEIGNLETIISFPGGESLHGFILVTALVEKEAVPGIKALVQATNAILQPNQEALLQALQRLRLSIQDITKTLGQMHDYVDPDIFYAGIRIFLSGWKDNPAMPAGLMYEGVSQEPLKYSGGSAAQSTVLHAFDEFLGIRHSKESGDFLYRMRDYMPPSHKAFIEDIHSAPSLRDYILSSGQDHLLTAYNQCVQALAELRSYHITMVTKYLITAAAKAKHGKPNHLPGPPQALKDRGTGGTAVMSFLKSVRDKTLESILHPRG

[2] = molecular target: T2, Indoleamine 2,3-dioxygenase 2 (Homo sapiens, UniProt Q6ZQW0); experiment: Inhibition of human IDO2 using L-tryptophan as substrate assessed as reduction in conversion of N-formyl kynurenine to kynurenine
T2 sequence (Q6ZQW0 whole entry): T1 sequence (whole entry)

[3] = molecular target: T3, Indoleamine 2,3-dioxygenase 1 (Homo sapiens, UniProt P14902); experiment: Inhibition of IDO1 (unknown origin) using L-tryptophan as substrate incubated for 30 min assessed as reduction in conversion of N-formyl kynurenine to kynurenine by dixon plot analysis
[4] = molecular target: T3, Indoleamine 2,3-dioxygenase 1; experiment: Inhibition of IDO1 in human U87MG cells in presence of L-tryptophan incubated for 24 h; type: cell-based

T3 sequence (P14902 whole entry): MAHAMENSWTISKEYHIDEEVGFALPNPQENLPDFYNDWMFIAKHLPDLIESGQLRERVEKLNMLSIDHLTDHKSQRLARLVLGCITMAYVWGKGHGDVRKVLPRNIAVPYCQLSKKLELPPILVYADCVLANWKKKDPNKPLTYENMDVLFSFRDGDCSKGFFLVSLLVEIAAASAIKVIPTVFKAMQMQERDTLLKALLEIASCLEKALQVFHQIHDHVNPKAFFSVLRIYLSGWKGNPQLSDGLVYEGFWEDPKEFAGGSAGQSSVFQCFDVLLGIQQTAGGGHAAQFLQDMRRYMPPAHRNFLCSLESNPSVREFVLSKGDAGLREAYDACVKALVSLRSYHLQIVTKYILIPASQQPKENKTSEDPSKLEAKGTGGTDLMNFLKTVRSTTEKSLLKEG

Structure (SMILES) | inhibition [1] | also measured
O=C1c2ccccc2-n2c1nc1ccccc1c2=O | 18 to 47% | 
O=C1c2cc([N+](=O)[O-])ccc2-n2c1nc1ccccc1c2=O | 63% | IC50 [2]: 0.00187 mM
O=C1c2ccccc2-n2c1nc1ccc(F)cc1c2=O | 18 to 47% | Ki [3]: > 3.9 mM; IC50 [4]: > 3.9 mM
O=C1c2cc(Br)ccc2-n2c1nc1ccccc1c2=O | 18 to 47% | 
Cn1cc(C[C@H](N)C(=O)O)c2ccccc21 | 8% | 
O=C1c2c(Cl)cccc2-n2c1nc1ccccc1c2=O | 18 to 47% | 
O=C1c2ccc(Cl)cc2-n2c1nc1ccccc1c2=O | 18 to 47% | 
O=C1c2cc(F)ccc2-n2c1nc1ccc(F)cc1c2=O | 18 to 47% | 
Cn1cc(C[C@@H](N)C(=O)O)c2ccccc21 | 8% | 
O=C1c2cc(F)ccc2-n2c1nc1ccccc1c2=O | 18 to 47% | 
Cc1ccc2c(c1)C(=O)c1nc3ccccc3c(=O)n1-2 | 18 to 47% | IC50 [4]: > 3.9 mM

Reference: ChEMBL document CHEMBL4482322, “Uses of tryptanthrin and derivative thereof in preparing hldo2 inhibitor” (2017)
